We go through seven compounds from ChEMBL document CHEMBL1909046, “DrugMatrix in vitro pharmacology data”.

In data set [1] the target is T1, Amine oxidase [flavin-containing] A (Homo sapiens, UniProt P21397).
T1 sequence (P21397 whole entry): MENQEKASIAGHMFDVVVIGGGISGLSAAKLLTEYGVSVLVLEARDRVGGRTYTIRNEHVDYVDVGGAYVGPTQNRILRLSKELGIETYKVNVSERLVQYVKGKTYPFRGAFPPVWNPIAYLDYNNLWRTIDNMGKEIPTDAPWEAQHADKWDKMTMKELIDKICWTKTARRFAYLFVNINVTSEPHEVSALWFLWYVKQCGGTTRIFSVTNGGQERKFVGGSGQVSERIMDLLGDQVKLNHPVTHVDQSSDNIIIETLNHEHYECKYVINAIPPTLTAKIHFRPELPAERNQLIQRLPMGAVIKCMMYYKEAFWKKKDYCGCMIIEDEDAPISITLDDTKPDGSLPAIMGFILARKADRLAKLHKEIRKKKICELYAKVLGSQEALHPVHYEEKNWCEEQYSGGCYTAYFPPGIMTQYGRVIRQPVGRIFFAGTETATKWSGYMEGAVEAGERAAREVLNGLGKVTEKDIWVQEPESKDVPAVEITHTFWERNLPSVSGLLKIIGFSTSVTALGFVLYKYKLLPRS
Nature of the data set: DRUGMATRIX: Monoamine Oxidase MAO-A enzyme inhibition (substrate: Kynuramine). The note with it: bti-tn-5b1-4; Not Active = under 50% inhibition at 10 µM. More on the design: species or system BTI-TN-5B1-4.

For a further data set, the target named is T2, Cytochrome P450 1A2 (Homo sapiens, UniProt P05177). Also: in other assays of this panel Not Active means under 50% inhibition at 10 µM.
T2 sequence (P05177 whole entry): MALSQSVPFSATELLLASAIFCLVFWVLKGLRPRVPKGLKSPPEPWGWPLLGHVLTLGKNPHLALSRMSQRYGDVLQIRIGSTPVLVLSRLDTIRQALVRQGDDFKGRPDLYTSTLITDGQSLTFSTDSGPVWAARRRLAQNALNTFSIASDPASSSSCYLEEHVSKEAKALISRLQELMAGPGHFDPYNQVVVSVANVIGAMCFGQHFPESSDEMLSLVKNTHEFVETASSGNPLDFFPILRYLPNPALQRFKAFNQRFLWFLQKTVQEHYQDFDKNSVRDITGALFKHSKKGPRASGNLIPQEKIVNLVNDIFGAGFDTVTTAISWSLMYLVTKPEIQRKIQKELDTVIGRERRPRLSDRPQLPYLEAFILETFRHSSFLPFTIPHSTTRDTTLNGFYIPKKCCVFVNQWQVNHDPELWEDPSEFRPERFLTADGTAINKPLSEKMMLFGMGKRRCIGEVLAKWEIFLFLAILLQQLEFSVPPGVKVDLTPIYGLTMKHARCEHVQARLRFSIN
The note with it: bti-tn-5b1-4.

The nature of data set [2]: DRUGMATRIX: Glutamate, AMPA radioligand binding (ligand: [3H] AMPA). It is filed as cell membranes, Rattus norvegicus, Wistar, Cerebral cortex, Membrane. Conditions: Not Active = under 50% inhibition at 10 µM.
Data set [3] concerns the target Protein kinase C alpha type (Homo sapiens, UniProt P17252). It is filed as cell-based. Conditions: sf9.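 Also: inhibition of PKCalpha kinase activity measured in an enzyme assay with histone as the phosphorylation substrate; in other assays of this panel Not Active means under 50% inhibition at 10 µM.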
Data set [4] deals with T3, Cysteinyl leukotriene receptor 1 (Homo sapiens, UniProt Q9Y271).
T3 sequence (Q9Y271 whole entry): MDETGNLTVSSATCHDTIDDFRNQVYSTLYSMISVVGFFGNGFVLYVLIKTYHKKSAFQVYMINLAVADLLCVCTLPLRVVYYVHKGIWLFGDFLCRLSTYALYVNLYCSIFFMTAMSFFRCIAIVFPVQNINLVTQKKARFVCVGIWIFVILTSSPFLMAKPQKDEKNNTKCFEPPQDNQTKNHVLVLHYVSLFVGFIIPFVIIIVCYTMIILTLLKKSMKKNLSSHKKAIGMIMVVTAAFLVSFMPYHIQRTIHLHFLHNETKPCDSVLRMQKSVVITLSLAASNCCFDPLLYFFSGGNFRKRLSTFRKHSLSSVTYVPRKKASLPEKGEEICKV
It is filed as cell membranes, CHO-K1, Membrane. Conditions: cho-k1.

Data set [5] can be described thus: DRUGMATRIX: Leukotriene, BLT (LTB4) radioligand binding (ligand: [3H]LTB4). Conditions: u-937; Not Active = under 50% inhibition at 10 µM. It is filed as cell membranes, Membrane.
For another data set, the target named is Carbonic anhydrase 2 (Homo sapiens, UniProt P00918). Nature of the data set: DRUGMATRIX: Carbonic Anhydrase II enzyme inhibition (substrate: 4-Nitrophenyl acetate (4-NPA)). In kind it is tissue-based, Erythrocyte. The note with it: erythrocyte; Not Active = under 50% inhibition at 10 µM.
The target in the next data set is Estrogen receptor beta (Homo sapiens, UniProt Q92731). The note with it: sf9. Also: in other assays of this panel Not Active means under 50% inhibition at 10 µM.
The target in data set [6] is T4, Neuropeptide Y receptor type 1 (Homo sapiens, UniProt P25929). Also: in other assays of this panel Not Active means under 50% inhibition at 10 µM.
T4 sequence (P25929 whole entry): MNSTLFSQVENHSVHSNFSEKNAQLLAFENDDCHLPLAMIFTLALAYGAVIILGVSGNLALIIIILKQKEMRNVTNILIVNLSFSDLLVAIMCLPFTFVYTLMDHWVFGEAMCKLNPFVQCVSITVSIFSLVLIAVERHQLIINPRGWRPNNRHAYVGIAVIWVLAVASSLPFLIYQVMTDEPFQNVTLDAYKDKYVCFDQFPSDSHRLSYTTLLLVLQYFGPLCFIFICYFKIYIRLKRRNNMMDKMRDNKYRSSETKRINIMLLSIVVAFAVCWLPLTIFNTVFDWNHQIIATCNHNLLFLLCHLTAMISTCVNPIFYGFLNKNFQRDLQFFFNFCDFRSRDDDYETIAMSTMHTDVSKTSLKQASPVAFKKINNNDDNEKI
It is filed as cell membranes, Membrane. Conditions: sk-n-mc.

For the next data set, the target named is Cytochrome P450 2D6 (Homo sapiens, UniProt P10635). The note with it: bti-tn-5b1-4. Also: in other assays of this panel Not Active means under 50% inhibition at 10 µM.
Data set [7] in a line: DRUGMATRIX: Calcium Channel Type L, Benzothiazepine radioligand binding (ligand: [3H] Diltiazem). The note with it: Not Active = under 50% inhibition at 10 µM. In kind it is cell membranes, Rattus norvegicus, Wistar, Brain, Membrane.
Data set [8] has as its target cGMP-specific 3',5'-cyclic phosphodiesterase (Homo sapiens, UniProt O76074). The data set is described as follows: DRUGMATRIX: Phosphodiesterase PDE5 enzyme inhibition (substrate: [3H]cGMP + cGMP). In kind it is tissue-based, Platelet. Conditions: platelet; Not Active = under 50% inhibition at 10 µM.

By IC50 is commonly meant the concentration that gives 50% inhibition. What is called Ki is the dissociation constant of the complex between target and ligand, obtained from inhibition or displacement.

Chain of Estrogen receptor beta (Q92731 whole entry): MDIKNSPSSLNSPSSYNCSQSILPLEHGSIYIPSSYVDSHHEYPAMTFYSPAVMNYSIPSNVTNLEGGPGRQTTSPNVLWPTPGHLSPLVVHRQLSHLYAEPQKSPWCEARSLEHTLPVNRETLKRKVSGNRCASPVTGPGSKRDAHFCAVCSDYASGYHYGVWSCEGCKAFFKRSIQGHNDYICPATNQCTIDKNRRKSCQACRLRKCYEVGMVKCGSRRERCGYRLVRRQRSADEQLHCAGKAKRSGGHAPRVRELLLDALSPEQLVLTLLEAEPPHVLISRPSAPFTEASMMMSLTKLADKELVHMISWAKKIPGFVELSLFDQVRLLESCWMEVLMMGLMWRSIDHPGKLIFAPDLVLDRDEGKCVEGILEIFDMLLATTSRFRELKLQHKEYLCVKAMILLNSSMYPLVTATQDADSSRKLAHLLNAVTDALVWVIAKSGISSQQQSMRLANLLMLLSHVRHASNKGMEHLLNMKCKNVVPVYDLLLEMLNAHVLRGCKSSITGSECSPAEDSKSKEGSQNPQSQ
Chain of Cytochrome P450 2D6 (P10635 whole entry): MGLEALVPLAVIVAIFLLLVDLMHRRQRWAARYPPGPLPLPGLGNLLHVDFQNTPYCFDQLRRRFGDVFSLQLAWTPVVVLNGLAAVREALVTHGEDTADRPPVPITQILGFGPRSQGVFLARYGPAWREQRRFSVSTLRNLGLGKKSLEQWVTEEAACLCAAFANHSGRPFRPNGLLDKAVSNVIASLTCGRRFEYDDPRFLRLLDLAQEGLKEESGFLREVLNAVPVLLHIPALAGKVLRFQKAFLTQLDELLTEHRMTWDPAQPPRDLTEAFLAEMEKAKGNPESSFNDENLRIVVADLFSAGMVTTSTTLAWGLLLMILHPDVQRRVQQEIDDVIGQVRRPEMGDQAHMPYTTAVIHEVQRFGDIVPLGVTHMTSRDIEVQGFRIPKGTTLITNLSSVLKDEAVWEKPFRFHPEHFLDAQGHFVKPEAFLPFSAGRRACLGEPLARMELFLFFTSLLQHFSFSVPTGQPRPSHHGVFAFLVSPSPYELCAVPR

Take `CC(=O)OCC(=O)[C@@]1(OC(C)=O)[C@@H](C)C[C@H]2[C@@H]3C[C@H](F)C4=CC(=O)C=C[C@]4(C)[C@@]3(F)[C@@H](O)C[C@@]21C` [DIFLORASONE DIACETATE]: the concentration for half-maximal inhibition (IC50) result (in data set [1]; at Cytochrome P450 1A2; in data set [2]; in [3]; in [4]; in [5]) was “Not Active” throughout. Also, the IC50 result (at Carbonic anhydrase 2; against Estrogen receptor beta; in data set [6]; against Cytochrome P450 2D6; in data set [7]; in data set [8]) was “Not Active” each time. Besides, the Ki entry (on Cytochrome P450 1A2; in data set [2]; in [5]; at Cytochrome P450 2D6; in [7]) was “Not Active” throughout.
Take `COc1ccc([C@@H]2Sc3ccccc3N(CCN(C)C)C(=O)[C@@H]2OC(C)=O)cc1` [DILTIAZEM]: the half-maximal inhibitory concentration (IC50) entry (in data set [1]; against Cytochrome P450 1A2; in [2]; in data set [3]; in data set [4]; in data set [5]) was “Not Active” in each case. For the same compound, the IC50 entry against Carbonic anhydrase 2 is “Not Active”; at Estrogen receptor beta, “Not Active”; in data set [6], “Not Active”; against Cytochrome P450 2D6, “Not Active”; in data set [7] (read-out: IC50), 28 nM; in data set [8] it was “Not Active”. Further, the inhibition constant (Ki) entry at Cytochrome P450 1A2 is “Not Active”; in data set [2], “Not Active”; in data set [5], “Not Active”; on Cytochrome P450 2D6, “Not Active”; in [7] (read-out: Ki), 25 nM.
On to `C=C1CC[C@H](O)C/C1=C/C=C1\CCC[C@]2(C)[C@@H]([C@H](C)/C=C/[C@H](C)C(C)C)CC[C@@H]12` [ERGOCALCIFEROL], for which the IC50 result (in data set [1]; against Cytochrome P450 1A2; in [2]; in data set [3]; in data set [4]; in data set [5]) was “Not Active” throughout. Also, the IC50 result (against Carbonic anhydrase 2; against Estrogen receptor beta; in data set [6]; against Cytochrome P450 2D6; in [7]; in data set [8]) was “Not Active” throughout. The Ki entry (at Cytochrome P450 1A2; in [2]; in [5]; on Cytochrome P450 2D6; in [7]) was “Not Active” in each case.
For the compound `CN1C[C@H](C(=O)N[C@]2(C)O[C@@]3(O)[C@@H]4CCCN4C(=O)[C@H](Cc4ccccc4)N3C2=O)C=C2c3cccc4[nH]cc(c34)C[C@H]21` [ERGOTAMINE], the IC50 result (in [1]; at Cytochrome P450 1A2; in [2]; in data set [3]; in [4]; in data set [5]) was “Not Active” in each case. Moreover, the IC50 entry (against Carbonic anhydrase 2; on Estrogen receptor beta; in data set [6]; at Cytochrome P450 2D6; in [7]; in [8]) was “Not Active” each time. For the same compound, the Ki entry (at Cytochrome P450 1A2; in data set [2]; in [5]; at Cytochrome P450 2D6; in [7]) was “Not Active” in each case.
With `CCc1cccc2c3c([nH]c12)C(CC)(CC(=O)O)OCC3` (centres undefined) [ETODOLAC], the IC50 result (in data set [1]; at Cytochrome P450 1A2; in data set [2]; in data set [3]; in [4]; in data set [5]) was “Not Active” each time. Further, the IC50 entry (on Carbonic anhydrase 2; at Estrogen receptor beta; in data set [6]; at Cytochrome P450 2D6; in data set [7]; in data set [8]) was “Not Active” in each case. Besides, the Ki entry (at Cytochrome P450 1A2; in [2]; in data set [5]; on Cytochrome P450 2D6; in data set [7]) was “Not Active” in each case.
Consider `Cc1c(-c2ccccc2)oc2c(C(=O)OCCN3CCCCC3)cccc2c1=O` [FLAVOXATE], for which the IC50 result (in [1]; against Cytochrome P450 1A2; in [2]; in [3]; in data set [4]; in data set [5]) was “Not Active” throughout. In addition, the IC50 result (on Carbonic anhydrase 2; against Estrogen receptor beta; in data set [6]; on Cytochrome P450 2D6; in data set [7]; in [8]) was “Not Active” each time. Besides, the inhibitory constant (Ki) result (at Cytochrome P450 1A2; in data set [2]; in data set [5]; on Cytochrome P450 2D6; in [7]) was “Not Active” each time.
As for `Nc1nc(=O)[nH]cc1F` [FLUCYTOSINE], the IC50 result (in [1]; at Cytochrome P450 1A2; in [2]; in [3]; in data set [4]; in data set [5]) was “Not Active” in each case. For the same compound, the IC50 result (against Carbonic anhydrase 2; against Estrogen receptor beta; in [6]; against Cytochrome P450 2D6; in data set [7]; in [8]) was “Not Active” each time. The Ki entry (on Cytochrome P450 1A2; in data set [2]; in data set [5]; at Cytochrome P450 2D6; in data set [7]) was “Not Active” in each case.
